The source of these data is publication PMC7177638 (International Journal of Molecular Sciences, 2020).

Series [1] concerns oxaliplatin-resistant colon LoVo-OXP cell line. More on the design: method as in PMID 22788918. The conditions noted are these: cited from earlier work.
Series [2] relates to cisplatin-resistant ovarian C13* cell line. More on the design: method as in PMID 22788918. Particulars: cited from earlier work.
The subject of series [3] is panel of human tumor cell lines (A431, 2008, HCT-15, LoVo, LoVo OXP, LoVo MDR). Particulars: cited from earlier work.
The subject of series [4] is LoVo OXP cells. The conditions noted are these: cited from earlier work.
Series [5] concerns human A431 cancer cell spheroids. As to the kind of experiment: Cytotoxicity towards 3D spheroids, acid phosphatase (APH) assay. It counts as cell-based. Particulars: A431 3D spheroids, 72 h, APH assay. The source says: The remarkable cell-killing effect observed against human A431 squamous cervical carcinoma two-dimensional (2D) cultured cells prompted us to evaluate the in vitro antitumor activity of compounds 1–6 on three-dimensional (3D) cell cultures. As opposed to 2D monolayer cultures, cells growing in 3D culture systems form spheroids that comprise cells in various stages. […] Such cellular heterogeneity resembles that of in vivo tumors, making 3D cell cultures more predictive than conventional 2D monolayer cultures in screening antitumor drugs.
Spheroid cultures were obtained by seeding 2.5 × 10^3 A431 cancer cells/well in a round bottom non-treated tissue culture 96 well-plate (Greiner Bio-one, Kremsmünster, Austria) in phenol red free RPMI-1640 medium (Sigma Chemical Co.) containing 10% fetal calf serum (FCS) and supplemented with 20% methyl cellulose stock solution.
An APH modified assay was used for determining cell viability in 3D spheroids, as previously described. IC50 values were calculated with a four parameter logistic (4-PL) model.

For series [6], the system named is LoVo human colon carcinoma cells. As to the kind of experiment: MTT cytotoxicity test, 72 h. It counts as cell-based. Here is the method: (§1) The in vitro cytotoxic activities of compounds 1–6 were assayed on a panel of human cancer cell lines containing examples of pancreatic (PSN-1), colon (HCT-15 and LoVo), cervical (A431), and ovarian (2008) cancers. Cisplatin and oxaliplatin were used as reference compounds and were tested under the same experimental conditions.
(§2) Human colon (HCT-15 and LoVo) and pancreatic (PSN-1) carcinoma cell lines were obtained from the American Type Culture Collection (ATCC, RocKville, MD). The 2008 human ovarian cancer cells were kindly provided by Prof. G. Marverti (Dept. of Biomedical Science of Modena University, Italy). Human cervical carcinoma (A431) cells were kindly provided by Prof. F. Zunino (Division of Experimental Oncology B, Istituto Nazionale dei Tumori, Milan, Italy). […] Cell lines were maintained in the logarithmic phase at 37 °C in a 5% carbon dioxide atmosphere using RPMI-1640 or F-12 culture medium (Euroclone) containing 10% fetal calf serum (Euroclone, Milan, Italy), antibiotics (50 units per mL penicillin and 50 μg mL^−1 streptomycin), and 2 mM L-glutamine.
(§3) The growth inhibitory effect toward the tumor cell lines was evaluated by the MTT test. Briefly, 3-8·10^3 cells/well, depending upon the growth characteristics of the cell lines, were seeded in 96-well microplates in growth medium (100 µL) and then incubated at 37 °C in a 5% carbon dioxide atmosphere. After 24 h, the medium was removed and replaced with a fresh one containing the compound to be tested at the appropriate concentration. Triplicate cultures were established for each treatment. After 72 h, each well was treated with 10 µL of a 5 mg·mL^−1 MTT (3-(4,5-dimethylthiazol-2-yl)-2,5-diphenyltetrazolium bromide) saline solution and, after 5 h of incubation, 100 µL of a sodium dodecylsulfate (SDS) solution in HCl 0.01 M were added. Following an overnight incubation, the inhibition of cell growth induced by the tested complexes was evaluated by measuring the absorbance of each well at 570 nm using a Bio-Rad 680 microplate reader (Bio-Rad Laboratories S.r.l., Segrate (MI), Italy).
For orientation: Tetrazolium assays rely on reduction of a dye to a coloured formazan, in cell work by metabolically active cells.

For series [7], the system named is 2008 human ovarian cancer cells. The experiment in a line: MTT cytotoxicity test, 72 h. It counts as cell-based. Particulars: 2008, MTT. The procedure:
as §1, §2, §3

The subject of series [8] is A431 human cervical carcinoma cells. As to the kind of experiment: MTT cytotoxicity test, 72 h. It is filed as cell-based. The procedure:
as §1, §2, §3

Series [9] relates to PSN-1 human pancreatic carcinoma cells. The experiment in a line: MTT cytotoxicity test, 72 h. The conditions noted are these: PSN-1, MTT. It is filed as cell-based. Here is the method:
as §1, §2, §3

Series [10] deals with HCT-15 human colon carcinoma cells. The experiment in a line: MTT cytotoxicity test, 72 h. Particulars: HCT-15, MTT. It is filed as cell-based. Here is the method:
as §1, §2, §3

Series [11] deals with panel of human cancer cell lines (PSN-1, HCT-15, LoVo, A431, 2008). As to the kind of experiment: MTT cytotoxicity, average over the panel of human cancer cell lines. It counts as cell-based. Particulars: mean over the cell line panel, 72 h. The procedure:
as §1
[17, 30] Thus, the pharmacological activity decreases in the order 3 >> 1 ≈ 2 ≈ 4 > 5 > 6.
as §3

Series [12] can be described thus: logPo/w by shake-flask method with ICP-MS Pt determination. It is filed as physicochemical. Particulars: n-octanol / 0.15 M KCl in water.
The nature of series [13]: XPS Pt4f surface reduction of Pt(IV) to Pt(II) under X-ray irradiation. It is filed as physicochemical. Particulars: for % of Reduction: after 30 min irradiation, calculated from Pt(IV) abundances. The source says: The Pt(IV) complexes were also characterized by X-ray photoelectron spectroscopy (XPS) in order to obtain information on the surface chemical composition and on the platinum speciation. Despite the surface sensitivity of the technique (topmost 5–8 nm), the analysis on homogeneous samples provides useful information on the chemical environment of all detected elements. […] Two doublets were found: one is attributed to Pt(II) (BE Pt4f7/2 = 72.9 ± 0.2 eV and BE Pt4f5/2 = 76.2 ± 0.2 eV), while the second doublet is attributed to Pt(IV) (BE Pt4f7/2 = 75.6 ± 0.2 eV and BE Pt4f5/2 = 79.0 ± 0.2 eV).
The Pt(IV)/Pt(II) relative abundance varies from case to case; moreover, if the X-ray degradation is monitored after 30 min exposure to the X-ray beam, an increase of the Pt(II) relative abundance is observed (Figure 8b).
X-ray Photoelectron Spectroscopy (XPS) analyses were run on a PHI 5000 Versa Probe II Scanning XPS Microprobe spectrometer (ULVAC PHI Inc., Kanagawa, Japan). Measurements were carried out using a monochromatic Al Kα source (X-ray spot 200 μm) at a power of 50.3 W. Wide scan and detailed spectra (Pt4f, C1s, Cl2p, N1s, O1s) were acquired in Constant Analyzer Energy (CAE) mode with a pass energy of 117.40 and 29.35 eV, respectively. An electron gun was used for charge compensation (1.0 V, 20.0 μA). Due to the X-ray sensitivity of Pt(IV) complexes, the Pt4f spectral region was acquired first. X-ray degradation kinetics experiments were performed analyzing the same sample area after 30 min. Data processing was performed by using the MultiPak software v. 9.8.0.19.

The nature of series [14]: Cyclic voltammetry, cathodic reduction potential in aqueous solution. It counts as physicochemical. The conditions noted are these: values normalized vs. SCE; phosphate buffer pH 7.4, 5 mM NaCl, 5·10^−4 M complex, scan rate 0.020 V s^−1. Here is the method:
The electrochemical characterization of compounds 1–6, performed by using cyclic voltammetry (CV), was carried out with the aim of determining the cathodic reduction potentials in aqueous solution (Ep^c).
Cyclic voltammetry (CV) measurements were carried out with a potentiostat CHI 1230B (CH Instruments, Inc., Austin, TX, USA) in a standard three-electrode electrochemical cell. The working electrode was a glassy carbon (GC) electrode, the reference electrode was a KCl-saturated Ag/AgCl and the counter was a Pt sheet. The GC electrode was carefully polished with alumina powder, then rinsed with distilled water and dried, to obtain a reproducible surface for all the experiments. All the measurements, conducted in triplicate, were carried out in buffered aqueous solutions containing the Pt(IV) compound at a concentration of 5·10^−4 M in 10 mL phosphate buffer (PB, pH = 7.4, I = 0.1) and 5 mM NaCl as supporting electrolyte. A blank solution (without Pt(IV) complex) was also tested. All the peak potentials were measured with a scan rate of 0.020 V s^−1; the initial potential was chosen equal to the open-circuit potential and the scan direction was negative. All the CV plots were acquired after an equilibration time of 2 min in order to make the GC surface reproducible.

In series [15] the test system is LoVo-OXP cancer cells. The experiment in a line: MTT cytotoxicity test, 72 h, oxaliplatin-resistant cells. It counts as cell-based, human. The conditions noted are these: LoVo OXP.
From the text: as §2, §3

Series [16] is described as follows: Stability in solution followed by 1H-NMR (solvent-assisted photoreduction). It is filed as physicochemical. The conditions noted are these: DMSO-d6, room temperature, not shielded from light. The text has this: (5.4–6.5 ppm). Most likely, compound 4 underwent a solvent-assisted reduction process favored by light, as previously observed for similar compounds such as cis,trans,cis-[PtCl2(OH)2(cis-1,4-DACH)] [19, 20]. […] This reduction/solvation could also be observed in other solvents, such as D2O and CD3OD.
As for compound 4, the reduction is probably fostered by the presence of axial chlorido ligand(s).
The ^13C NMR signals are influenced by the asymmetry of the complex with respect to the equatorial plane with two peaks at 125.4 and 125.2 ppm for the vinylic carbons, two signals at 60.2 and 59.3 ppm for the methynic carbons, and two signals at 33.1 and 32.6 ppm for the methylenic carbons (Figure S10).

In the case of `NC1CCC(N)CC1.[Cl][Pt+2][Cl]` (stereo not drawn) [Kiteplatin, [PtCl2(cis-1,4-DACH)]], the “activity against cell line” value in series [1] and in series [2] was “active” each time.
As to `NC1CC=CCC1N.O=C1[O][Pt][O]C1=O` (racemic) [[Pt(OXA)(DACHEX)]], the “ability to overcome oxaliplatin resistance (LoVo vs LoVo-OXP)” value in series [3] is given as “equally active”. Besides, the “cytotoxic activity compared with cisplatin and oxaliplatin” value in series [3] (panel of human tumor cell lines) is “better than that of cisplatin and comparable to or better than that of oxaliplatin”. The lipid droplets formation result in series [4] was “induced lipid droplets formation”.
What is called IC50 is the point on the concentration scale where inhibition reaches its midpoint. `[NH2][Pt]([NH2])([Cl])[Cl]` [CDDP, cisplatin, reference compound]: the IC50 in series [5] was 58.3 ± 0.9 µM; in [6] it was 7.6 ± 1.5 µM; in [7], 2.23 ± 0.1 µM; in series [8], 1.43 ± 0.4 µM; in series [9] it was 16.6 ± 4.2 µM; in series [10] it was 15.3 ± 2.6 µM. This compound showed an IC50 in [11] of 8.6 µM.
Consider “cis,trans,cis-[Pt(OXA)(OH)2(DACHEX)] [Complex 1]”, for which the IC50 in series [5] came to 5.8 ± 0.8 µM; in [6], 0.84 ± 0.3 µM; in series [7], 0.72 ± 0.1 µM; in [8], 0.49 ± 0.2 µM; in [9], 3.15 ± 0.8 µM; in series [10], 0.44 ± 0.1 µM. In series [15], this compound returned an IC50 greater than 2 µM. In addition, the logPo/w in series [12] is recorded as −3.05. Also, in series [13] (after 30 min X-ray irradiation), the “% Relative Abundance Pt(IV)/(II), After 30 min Irradiation” value was 48/52. For the same compound, the “% of Reduction” value in [13] is listed as 44%. For the same compound, in series [13] (onset of the experiment), the “% Relative Abundance Pt(IV)/(II), As Irradiated” value is 86/14. In addition, the “Cathodic reduction potential Ep^c” value in series [14] is on record as −1.05 V.
For `O=C1[O][Pt]2([NH][C@@H]3CCCC[C@H]3[NH]2)[O]C1=O` [OXP, oxaliplatin, reference compound], the IC50 turned out to be 36.3 ± 1.2 µM in [5]; 1.1 ± 0.6 µM in series [6]; 1.53 ± 0.9 µM in series [7]; 3.8 ± 1.3 µM in [8]; 7.9 ± 3.5 µM in series [9]; 1.15 ± 0.4 µM in series [10]. Further, the IC50 in [11] is 3.1 µM; in series [15], 14.3 ± 2.1 µM.
On to `CC(=O)[O][Pt]1([O]C(C)=O)[O]C(=O)C(=O)[O]1.NC1CC=CCC1N` [Complex 2, cis,trans,cis-[Pt(OXA)(AcO)2(DACHEX)]], for which the IC50 in [5] stood at 3.4 ± 0.9 µM; in series [6], 0.59 ± 0.1 µM; in [7] it was 0.33 ± 0.5 µM; in series [8], 0.55 ± 0.1 µM; in series [9] it was 2.85 ± 0.7 µM; in series [10], 1.27 ± 0.5 µM. The IC50 in [15] is greater than 2 µM. Also, the “% of Reduction” value in [13] is recorded as 65%. The “Cathodic reduction potential Ep^c” value in series [14] is given as −1.03 V.
On to `NC1CC=CCC1N.O=C1[O][Pt]([Cl])([Cl])[O]C1=O` (racemic) [Complex 4, cis,trans,cis-[Pt(OXA)Cl2(DACHEX)]], for which the IC50 in series [5] is 9.9 ± 2.6 µM; in series [6], 0.39 ± 0.03 µM; in [7], 0.42 ± 0.1 µM; in series [8], 0.43 ± 0.2 µM; in series [9], 3.08 ± 1.1 µM; in series [10] it was 1.17 ± 0.2 µM. Moreover, the IC50 in series [15] is greater than 2 µM. Moreover, in series [13], the “% of Reduction” value is 67%. Further, the “Cathodic reduction potential Ep^c” value in series [14] is −0.72 V. The “stability in solution (reduction to Pt(II) / solvation)” value in [16] was “quite unstable”.
